Legend:
Type in all cases: in vivo
Armyworm, P. Unipuncta [1] = experiment: Field trial, stomach poison test
In short: (§1)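 Insects, five or ten per dish, are fed air-dried leaves that were dipped in or sprayed with the compound at two or three rates. Mortality is rated 0–9 at 24, 48 and 72 h and averaged per concentration.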

Asparagus Beetles Adults = experiment: Field trial, stomach poison test
In short: as §1

[2] = tested on: Tarnished Plant Bug Adults; experiment: Field trial, stomach poison test; design: key: mortality rating on a 0 to 9 scale
In short: as §1

[3] = tested on: Unidentified Green Leafhopper; experiment: Field trial, stomach poison test; design: key: mortality rating on a 0 to 9 scale
In short: as §1

Armyworm, P. Unipuncta [4] = experiment: Field trial, contact poison test
In short: (§2)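 Read-out: mortality rating 0–9 (0 = 0-10 percent, 9 = 91-100 percent) at 24/48/72 h, averaged per concentration. Insects were sprayed on potted-in-water host plants using an atomizer at 10 psi, with dead insects caught on paper below.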

Eastern Tent Caterpillar [5] = experiment: Field trial, contact poison test
In short: as §2

Elm Leaf Beetle = experiment: Field trial, contact poison test
In short: as §2

Walnut Caterpillar = experiment: Field trial, contact poison test
In short: as §2

Eastern Tent Caterpillar [6] = experiment: Field trial, topical application
In short: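 1 μL benzimidazole solution of set microgram content applied topically to larvae or adults. Mortality read at 24, 48 and 72 h where applicable, rated 0-9 (0 = 0-10%, 9 = 91-100%); values are average mortality per concentration.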

Confused Flour Beetle = experiment: Field trial (first summer), topical; settings: .078125 μg/μl
In short: (§3)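 Field trial from the first summer in which 1 µl of test solution holding a set number of micrograms of benzimidazole was applied topically to larvae or adult insects. Mortality at a given route and concentration was scored on a 0–9 scale.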

Picnic Beetle [7] = experiment: Field trial (first summer), topical; settings: .078125 μg/μl
In short: as §3

Picnic Beetle [8] = experiment: Field trial (first summer), stomach; settings: 250 ppm
Experimental: Leaves from the infested plant are treated with different concentrations of the test compounds, either by spraying with a DeVilbiss Special Atomizer (5004) at 10 psi or by dipping the leaves in solutions containing the compound. The leaves are then allowed to air dry.
After the leaves have dryed, they are placed in plastic petri dishes (100 × 25 mm), then the insects are counted out into each dish, five or ten insects per dish depending on the number of insects available. There are one or two replicates and usually two or three rates with each compound. Mortality results are taken at 24, 48 and 72 hours. The rating scale is 0 to 9.
During the previous summer similar field trials were conducted employing the same tests as heretofore but with some additional species of insects not included in the later tests. The results listed below are for tests in which an insect mortality was established by a given application route and at a given concentration in a particular test. The same 0 - 9 scoring system is used as is the designation of compounds by alphabetical symbols.

Differential Grasshopper = experiment: Field trial (first summer), contact; settings: 125 ppm
Meadow Grasshopper = experiment: Field trial (first summer), contact; settings: 125 ppm

Structure (SMILES): O=[N+]([O-])c1cc(C(F)(F)F)cc2nc(C(F)(F)F)[nH]c12 [A, 2,6-bis(trifluoromethyl)-4-nitrobenzimidazole]
- average mortality rating (Armyworm, P. Unipuncta [1]; 125 ppm): 9 (91-100 percent mortality)
- average mortality rating (Armyworm, P. Unipuncta [1]; 250 ppm): 9 (91-100 percent mortality)
- average mortality rating (Armyworm, P. Unipuncta [1]; 500 ppm): 9 (91-100 percent mortality)
- average mortality rating (Asparagus Beetles Adults; 5 ppm): 0 (0-10 percent)
- average mortality rating (Asparagus Beetles Adults; 10 ppm): 3
- average mortality rating (Asparagus Beetles Adults; 25 ppm): 9 (91-100 percent mortality)
- average mortality rating ([2]; 10 ppm): 3
- average mortality rating ([2]; 25 ppm): 1
- average mortality rating ([2]; 50 ppm): 2
- average mortality rating ([3]; 10 ppm): 4
- average mortality rating ([3]; 25 ppm): 2
- average mortality rating ([3]; 50 ppm): 6
- average mortality rating (Armyworm, P. Unipuncta [4]; 125 ppm): 0 (0-10 percent)
- average mortality rating (Armyworm, P. Unipuncta [4]; 250 ppm): 1
- average mortality rating (Armyworm, P. Unipuncta [4]; 500 ppm): 3
- average mortality rating (Eastern Tent Caterpillar [5]; 50 ppm): 0 (0-10 percent)
- average mortality rating (Eastern Tent Caterpillar [5]; 100 ppm): 3
- average mortality rating (Eastern Tent Caterpillar [5]; 250 ppm): 5
- average mortality rating (Eastern Tent Caterpillar [5]; 500 ppm): 5
- average mortality rating (Elm Leaf Beetle; 250 ppm): 0 (0-10 percent)
- average mortality rating (Elm Leaf Beetle; 500 ppm): 7
- average mortality rating (Elm Leaf Beetle; 1000 ppm): 9 (91-100 percent mortality)
- average mortality rating (Walnut Caterpillar; 25 ppm): 1
- average mortality rating (Walnut Caterpillar; 50 ppm): 1
- average mortality rating (Walnut Caterpillar; 100 ppm): 1
- average mortality rating (Walnut Caterpillar; 250 ppm): 7
- average mortality rating (Eastern Tent Caterpillar [6]; 0.3 μg/μl): 3
- average mortality rating (Eastern Tent Caterpillar [6]; 0.6 μg/μl): 1
- average mortality rating (Eastern Tent Caterpillar [6]; 1.2 μg/μl): 3
- insect mortality rating (Confused Flour Beetle): 9 (91-100 percent mortality)
- insect mortality rating (Picnic Beetle [7]): 9 (91-100 percent mortality)
- insect mortality rating (Picnic Beetle [8]): 9 (91-100 percent mortality)
- insect mortality rating (Differential Grasshopper): 9 (91-100 percent mortality)
- insect mortality rating (Meadow Grasshopper): 9 (91-100 percent mortality)
